This note sets out measurements from patent US20160220709A1, “PHOTOACOUSTIC IMAGING CONTRAST AGENT COMPOSITION” (Agency for Science, Technology and Research, priority 2013, published 2016).

Series [1] is described as follows: In vitro photoacoustic (PA) signal measurement in polyethylene tubing, PA microscopy at 410 nm. An excerpt: The microscopy system consists of laser pulse generation and delivery, PA signal reception, and image reconstruction and display. Laser pulses, 4 ns wide, were generated at a frequency of 10 Hz by using an optical parametric oscillator (Surlite OPO Plus, Continuum, USA). The laser was pumped by a frequency-tripled Nd:YAG Q-switched laser (Surlite II-10, Continuum, USA). The incident wavelength was set at 410 nm. The custom-made 50-MHz ultrasonic transducer (Acoustic Sensor, Taiwan) has a −6 dB fractional bandwidth of 57.5%, focal length of 9 mm, and a 6 mm active element, offering an axial resolution of 32 μm and a lateral resolution of 61 μm.
Laser energy was delivered using a 1-mm multimodal fiber. The fiber tip was coaxially aligned with a convex lens, an axicon, a plexiglass mirror, and an ultrasonic transducer on an optical bench, forming dark-field illumination that was confocal with the focal point of the ultrasonic transducer. The incident energy density on the sample surface was well within American National Standards Institute (ANSI) safety limits. The transducer was immersed in an acrylic water tank during the imaging process, and the hole at the bottom of the tank was sealed with a piece of […] thick polyethylene film. A thin layer of ultrasonic gel was applied as a PA conductive medium, which was then attached to the thin polyethylene film to ensure reliable coupling of the PA waves with the water tank. The PA signals received by the ultrasonic transducer were pre-amplified by a low-noise amplifier (noise FIG. 1.2 dB, gain 55 dB, AU-3A-0110, USA), cascaded to an ultrasonic receiver (5073 PR, Olympus, USA) and then digitized and sampled by a computer-based 14-bit analog to digital (A/D) card (CompuScope 14220, GaGe, USA) at a 200-MHz sampling rate for data storage.
Fluctuations in the laser energy were monitored with a photodiode (DET36A/M, Thorlabs, USA). The recorded photodiode signals were measured prior to the experiment to compensate for PA signal variations caused by laser-energy instability. The achievable penetration depth of the current PA microscopy system was 3 mm with approximately 18-dB SNR, where SNR is defined as the ratio of the signal peak value to the root-mean-square value of the noise. Three scan types can be provided by this system: A-line (i.e., one-dimensional images where the axis represents the imaging depth), B-scan (i.e., two-dimensional images where one axis is the lateral scanning distance and the other is the imaging depth), and C-scan (i.e., projection images from the three-dimensional images). The amplitude of the envelope-detected PA signals was used in the subsequent functional imaging analysis.
For both in vivo and in vitro imaging, the laser was pulsed with a pulse repetition rate of 10 Hz and coupled by a lens to an optical fiber to illuminate the ROI. A window at the bottom of the water container was sealed with an optically and ultrasonically transparent, disposable polyethylene film. After a commercially available ultrasound gel was applied to the brain for acoustic coupling, the brain was placed between the water container and the custom-made stereotaxic apparatus for imaging.
All the PA images in this study were acquired at 410 nm without any need for signal averaging, and yet the contrast quality of the PA images is high. […]

A further series in a line: Water solubility. It is filed as physicochemical.
Series [2] can be described thus: In vivo PA imaging of rat cortical vasculature (superior sagittal sinus). To be noted: 200 μL of 30 μM, retro-orbital injection, 20 min after administration, 410 nm. An excerpt:
Cortical vasculature of the rat was in vivo imaged at 32×61 μm resolution, with a designed 50-MHz dark-field confocal PA microscopy system (FIG. 4); the PA signal at λ410 was acquired. The SSS is the largest vein in the rodent brain cortex, and a selected section of it is the region-of-interest (ROI) in this study (FIG. 5B). There is strong clinical evidence that controlling cerebral venous blood flow is critically important for patients with severe traumatic brain injury as well as for patients undergoing cardiac surgery. Then, the SSS is a large central cerebral vein at cortical layer, and collects blood flow from both hemispheres before emptying into the internal jugular vein. That is, accurate measurements of blood flow changes in the SSS are thus very important.
Six male Wistar rats (NUS-CARE, Singapore), weighing 250-300 grams, were used. Animal experiments were conducted in accordance with guidelines from Institutional Animal Care and Use Committee (IACUC) at the National University of Singapore. The rats were fasted for 24 h prior to the imaging experiments, but were given water ad libitum. They were anesthetized with isoflurane (2 to 3% in 100% O2), mounted in a dorsal position over a custom-made acrylic stereotaxic holder, and the skin and muscle on the skull were removed to expose the bregma landmark. […]

Series [3] concerns oral squamous cell carcinoma (OSCC) cells. As to the kind of experiment: Cell viability study (MTS / CCK8 cytotoxicity assay). It is filed as cell-based. Conditions: 0.01-30 μM, 24 h incubation. How it is done: Five thousand oral squamous cell carcinoma (OSCC) cells were seeded in a 96-well plate for 24 h before a solution of 2 in DMEM ([…]) with the indicated concentrations (0.01-30 μM) was introduced into each well. After incubation for 24 h, 10 μL of CCK8 (cell counting kit-8, Sigma-Aldrich) was added to each well. Cell absorbance was measured with a SpectraMax 384 Plus spectral analyser after 4 h, with 450 nm excitation.

For `[C-]#[O+].[C-]#[O+].[C-]#[O+].[C-]#[O+].[C-]#[O+].[C-]#[O+].[C-]#[O+].[C-]#[O+].[C-]#[O+].[C-]#[O+].[C-]#[O+].[C-]#[O+].[Os].[Os].[Os]` [1c, Os3(CO)12], the “PA signal relative to that for single-walled carbon nanotubes (SWNT)” value in series [1] is 2.4 times higher. Besides, in series [1] (water/ethanol (60:40, v/v)), the “PA signal relative to that for 1a” value is reported as “about 1.5 times higher”; the “PA signal relative to that for 1b” value is reported as roughly 1.2 times higher; the “PA signal, rank among the three carbonyl clusters” value is listed as “highest PA signal”. The water solubility result in the series “Water solubility” is reported as “low water solubility”.

Take “Os3(CO)10(μ-H)μ-S(CH2)2COO^−Na^+ [compound 2]”: the “clarity of brain vasculature in PA B-scan image compared to intrinsic optical contrast” value in series [2] was “greater clarity”. For the same molecule, the “effect on viability of cells (cytotoxicity)” value in series [3] is “little effect on the viability of cells”. The “concentration down to which PA signal of aqueous solution is adequate” value in series [1] (aqueous solution, B-scan) turned out to be 2.5 µM. Besides, the water solubility entry in “Water solubility” is reported as “water-soluble”.
